The text below walks through data of PubChem BioAssay (NCI).

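Briefly, cells in 96-well plates were exposed to five compound concentrations for 48 h, and endpoints were estimated by linear interpolation. TGI: total growth inhibition.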

The subject of one experiment is COLO 205 colon. The experiment in a line: NCI-60 cell line screen, 48 h.
`O=C1CS(=O)(=O)C(c2cccc(Oc3ccccc3)c2)N1c1ccc(Cl)cc1` (centres undefined) displayed a TGI of 35.5 µM.
The same measure, in the same setting: the result for `CC1C2CC(C(S(=O)(=O)O)C2=O)C1(C)C` (centres undefined) reads above 100 µM.
The same measure, in the same setting: then `Cc1n(CC(C)C)c2c([n+]1C)C(=O)c1ccccc1C2=O`, with 0.0575 µM; and `Cc1c(-c2ccccc2)cc(O)c2nc3ccccc3n12`, with above 100 µM; and `Cc1ccc(C(=O)O)c(/C=C2\Cc3ccc(C)cc3C2=O)c1`, with above 100 µM.
`C=C(CCOC)CCC1CCCCC(CN(C)C)C1=O` (centres undefined) had a TGI above 100 µM.
Still for that read-out and setting: then `COc1ccc(/C=C2\N=C(N3CCCCC3)NC2=O)cc1`, with above 100 µM; and `NC(N)=NS(=O)(=O)c1ccc(NNc2c3ccccc3nc3ccccc23)cc1`, with 33.2 µM; and `COc1cc2c(cc1OCCCCCCCCCCN1C(=O)c3cccc4cccc(c34)C1=O)N=C[C@@H]1CCCN1C2=O`, with 15.9 µM.
Turning to `O=C(NC1=C(Cl)C(=O)c2ccccc2C1=O)c1ccccc1`, the TGI is 30 µM.
Consider `COc1ccc(Cn2c(=O)c(OC)c(C)c3cc4ccccc4cc32)cc1`, for which the TGI amounted to 40.2 µM.
Consider `N#Cc1c(-c2ccc(Cl)cc2)c2c(n(C3OC(CO)C(O)C(O)C3O)c1=S)CCCC2` (centres undefined), for which the TGI is above 100 µM.
`COC(=O)C1Cc2cc3c(cc2C1=O)CCC3` (centres undefined) registered a TGI above 100 µM.
On the same count and under the same terms, the result for `Cc1ccc2c(ccc(/C=C/c3ccc(O)c4ncccc34)[n+]2C)c1` reads 39.9 µM.
`CCOC(=O)c1ccc(N=C/C=C(\Nc2ccc(C(=O)OCC)cc2)C23CC4CC(CC(C4)C2)C3)cc1` had a TGI above 100 µM.
Same read-out and setting: the result for `CC(=O)SCCC(NC(=S)Nc1ccccc1)P(=O)(Oc1ccccc1)Oc1ccccc1` (centres undefined) reads above 100 µM; that for `NC(=Nc1ccccc1Cl)c1ccccc1N`, above 100 µM.
For `CCCCCCCC(CC(=O)NC(CO)C(=O)NC(CO)CC(C)C)OC(=O)CC(CCCCCCC)OC(=O)CC(CCCCCCC)OC1OC(C)C(O)C(OC2OC(C)C(OC(C)=O)C(O)C2O)C1O` (centres undefined), the TGI came out at 9.14 µM.

Another experiment has as its system EKVX NSCLC. The experiment in a line: NCI-60 cell line screen, 48 h.
With `O=C1CS(=O)(=O)C(c2cccc(Oc3ccccc3)c2)N1c1ccc(Cl)cc1` (centres undefined), the TGI came out at 51.3 µM.
Regarding `CC1C2CC(C(S(=O)(=O)O)C2=O)C1(C)C` (centres undefined), the TGI was above 100 µM.
On the same count and under the same terms, the result for `Cc1n(CC(C)C)c2c([n+]1C)C(=O)c1ccccc1C2=O` reads 0.649 µM; that for `Cc1c(-c2ccccc2)cc(O)c2nc3ccccc3n12`, above 100 µM.
The compound `Cc1ccc(C(=O)O)c(/C=C2\Cc3ccc(C)cc3C2=O)c1` showed a TGI above 100 µM.
Still for that read-out and setting: the result for `C=C(CCOC)CCC1CCCCC(CN(C)C)C1=O` (centres undefined) reads above 100 µM.
Turning to `COc1ccc(/C=C2\N=C(N3CCCCC3)NC2=O)cc1`, the TGI is above 100 µM.
In the case of `NC(N)=NS(=O)(=O)c1ccc(NNc2c3ccccc3nc3ccccc23)cc1`, the TGI was 34.3 µM.
`COc1cc2c(cc1OCCCCCCCCCCN1C(=O)c3cccc4cccc(c34)C1=O)N=C[C@@H]1CCCN1C2=O` returned a TGI of 14.4 µM.
The same measure, in the same setting: the result for `O=C(NC1=C(Cl)C(=O)c2ccccc2C1=O)c1ccccc1` reads above 100 µM; that for `COc1ccc(Cn2c(=O)c(OC)c(C)c3cc4ccccc4cc32)cc1`, 60.3 µM.
Turning to `N#Cc1c(-c2ccc(Cl)cc2)c2c(n(C3OC(CO)C(O)C(O)C3O)c1=S)CCCC2` (centres undefined), the TGI is above 100 µM.
On the same count and under the same terms, then `COC(=O)C1Cc2cc3c(cc2C1=O)CCC3` (centres undefined), with above 100 µM; and `Cc1ccc2c(ccc(/C=C/c3ccc(O)c4ncccc34)[n+]2C)c1`, with 76.6 µM; and `CCOC(=O)c1ccc(N=C/C=C(\Nc2ccc(C(=O)OCC)cc2)C23CC4CC(CC(C4)C2)C3)cc1`, with above 100 µM.
Compound `CC(=O)SCCC(NC(=S)Nc1ccccc1)P(=O)(Oc1ccccc1)Oc1ccccc1` (centres undefined) returned a TGI above 100 µM.
Same read-out and setting: the result for `NC(=Nc1ccccc1Cl)c1ccccc1N` reads above 100 µM; that for `CCCCCCCC(CC(=O)NC(CO)C(=O)NC(CO)CC(C)C)OC(=O)CC(CCCCCCC)OC(=O)CC(CCCCCCC)OC1OC(C)C(O)C(OC2OC(C)C(OC(C)=O)C(O)C2O)C1O` (centres undefined), 28.2 µM.

For a further experiment, the system named is HCC-2998 colon. Put plainly: NCI-60 cell line screen, 48 h.
The compound `O=C1CS(=O)(=O)C(c2cccc(Oc3ccccc3)c2)N1c1ccc(Cl)cc1` (centres undefined) had a TGI of 20.8 µM.
Take `CC1C2CC(C(S(=O)(=O)O)C2=O)C1(C)C` (centres undefined): the TGI is above 100 µM.
On the same count and under the same terms, then `Cc1n(CC(C)C)c2c([n+]1C)C(=O)c1ccccc1C2=O`, with 1.53 µM; and `Cc1c(-c2ccccc2)cc(O)c2nc3ccccc3n12`, with above 100 µM; and `Cc1ccc(C(=O)O)c(/C=C2\Cc3ccc(C)cc3C2=O)c1`, with above 100 µM.
The compound `C=C(CCOC)CCC1CCCCC(CN(C)C)C1=O` (centres undefined) yielded a TGI above 100 µM.
Same read-out and setting: the result for `COc1ccc(/C=C2\N=C(N3CCCCC3)NC2=O)cc1` reads above 100 µM; that for `NC(N)=NS(=O)(=O)c1ccc(NNc2c3ccccc3nc3ccccc23)cc1`, 27.3 µM.
In the case of `COc1cc2c(cc1OCCCCCCCCCCN1C(=O)c3cccc4cccc(c34)C1=O)N=C[C@@H]1CCCN1C2=O`, the TGI was found to be 27.5 µM.
In the case of `O=C(NC1=C(Cl)C(=O)c2ccccc2C1=O)c1ccccc1`, the TGI was above 100 µM.
As to `COc1ccc(Cn2c(=O)c(OC)c(C)c3cc4ccccc4cc32)cc1`, the TGI came out at 63.5 µM.
In turn, `N#Cc1c(-c2ccc(Cl)cc2)c2c(n(C3OC(CO)C(O)C(O)C3O)c1=S)CCCC2` (centres undefined) gave a TGI above 100 µM.
Still for that read-out and setting: then `COC(=O)C1Cc2cc3c(cc2C1=O)CCC3` (centres undefined), with above 100 µM.
Compound `Cc1ccc2c(ccc(/C=C/c3ccc(O)c4ncccc34)[n+]2C)c1` registered a TGI of 20.7 µM.
Compound `CCOC(=O)c1ccc(N=C/C=C(\Nc2ccc(C(=O)OCC)cc2)C23CC4CC(CC(C4)C2)C3)cc1` returned a TGI above 100 µM.
Same read-out and setting: the result for `CC(=O)SCCC(NC(=S)Nc1ccccc1)P(=O)(Oc1ccccc1)Oc1ccccc1` (centres undefined) reads above 100 µM.
`NC(=Nc1ccccc1Cl)c1ccccc1N` showed a TGI above 100 µM.
For `CCCCCCCC(CC(=O)NC(CO)C(=O)NC(CO)CC(C)C)OC(=O)CC(CCCCCCC)OC(=O)CC(CCCCCCC)OC1OC(C)C(O)C(OC2OC(C)C(OC(C)=O)C(O)C2O)C1O` (centres undefined), the TGI came out at 17.2 µM.

The test system of the next experiment is HL-60(TB) leukemia. Put plainly: NCI-60 cell line screen, 48 h.
Consider `O=C1CS(=O)(=O)C(c2cccc(Oc3ccccc3)c2)N1c1ccc(Cl)cc1` (centres undefined), for which the TGI was above 100 µM.
Compound `CC1C2CC(C(S(=O)(=O)O)C2=O)C1(C)C` (centres undefined) yielded a TGI above 100 µM.
Consider `Cc1n(CC(C)C)c2c([n+]1C)C(=O)c1ccccc1C2=O`, for which the TGI is 0.437 µM.
Compound `Cc1c(-c2ccccc2)cc(O)c2nc3ccccc3n12` had a TGI above 100 µM.
Still for that read-out and setting: the result for `Cc1ccc(C(=O)O)c(/C=C2\Cc3ccc(C)cc3C2=O)c1` reads 98.6 µM.
The same measure, in the same setting: then `C=C(CCOC)CCC1CCCCC(CN(C)C)C1=O` (centres undefined), with above 100 µM; and `COc1ccc(/C=C2\N=C(N3CCCCC3)NC2=O)cc1`, with above 100 µM.
On the same count and under the same terms, then `NC(N)=NS(=O)(=O)c1ccc(NNc2c3ccccc3nc3ccccc23)cc1`, with 43.9 µM.
With `COc1cc2c(cc1OCCCCCCCCCCN1C(=O)c3cccc4cccc(c34)C1=O)N=C[C@@H]1CCCN1C2=O`, the TGI worked out at 43.2 µM.
On the same count and under the same terms, the result for `O=C(NC1=C(Cl)C(=O)c2ccccc2C1=O)c1ccccc1` reads above 100 µM; that for `COc1ccc(Cn2c(=O)c(OC)c(C)c3cc4ccccc4cc32)cc1`, 46 µM; that for `N#Cc1c(-c2ccc(Cl)cc2)c2c(n(C3OC(CO)C(O)C(O)C3O)c1=S)CCCC2` (centres undefined), 58.9 µM.
For `COC(=O)C1Cc2cc3c(cc2C1=O)CCC3` (centres undefined), the TGI was above 100 µM.
Compound `Cc1ccc2c(ccc(/C=C/c3ccc(O)c4ncccc34)[n+]2C)c1` had a TGI above 100 µM.
As to `CCOC(=O)c1ccc(N=C/C=C(\Nc2ccc(C(=O)OCC)cc2)C23CC4CC(CC(C4)C2)C3)cc1`, the TGI was above 100 µM.
